Test [1] is described as follows: animal experiment on anti-obesity effect of Example 1. The test is classed as in vivo. As to conditions: no details.
Test [2] addresses human glucagon GLP-1 receptor (Homo sapiens, UniProt P43220). Put plainly: cell-based.
Protocol: Thereafter, the cells were incubated for 4 hours under conditions of a temperature of 37° C. in a CO2 incubator.
Test [3] addresses T1, Pancreatic lipase (Homo sapiens, UniProt P16233).
T1 sequence (P16233 17-465): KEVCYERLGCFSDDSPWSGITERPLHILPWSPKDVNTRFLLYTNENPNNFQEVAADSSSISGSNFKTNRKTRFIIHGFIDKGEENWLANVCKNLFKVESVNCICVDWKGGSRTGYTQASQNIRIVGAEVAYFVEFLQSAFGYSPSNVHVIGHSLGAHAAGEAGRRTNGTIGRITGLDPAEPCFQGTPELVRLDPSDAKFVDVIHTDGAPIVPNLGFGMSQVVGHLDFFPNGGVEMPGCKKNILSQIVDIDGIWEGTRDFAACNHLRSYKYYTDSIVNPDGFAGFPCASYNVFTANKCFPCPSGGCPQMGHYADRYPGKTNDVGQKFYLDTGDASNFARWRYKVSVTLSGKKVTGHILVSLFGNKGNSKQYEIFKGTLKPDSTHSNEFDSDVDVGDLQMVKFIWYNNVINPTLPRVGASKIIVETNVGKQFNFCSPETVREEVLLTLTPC
As to conditions: background statement; cited from earlier work.

The subject of test [4] is obesity animal model (C57BL/6 mice, 60% high-fat diet). As to the kind of experiment: blood glucose in obesity model, Examples 2 and 6 (Experimental Example 6). The format is in vivo. The following applies: 20 nmol/kg s.c. once every other day for 2 weeks; FIG. 5. On the procedure:
(§1) To check a preventing or therapeutic effect of the conjugates of Examples 2 and 6, which had different amino acid sequences, on obesity or diabetes, an animal model of obesity was prepared by feeding a 60% high-fat diet to normal C57BL/6 mice (approximately 6 weeks old) for approximately 24 weeks, and increasing the body weights of the mice to approximately 50 g in average. Thereafter, each of the conjugates of Examples 2 or 6 was administered by subcutaneous injection at a dose of 20 nmol/kg once every other day for 2 weeks. As the control, PBS was administered instead of the conjugates of Examples. For 2 weeks when the conjugates of Examples 2 or 6 were administered, changes in blood glucose with time were measured. Also, to perform an intraperitoneal glucose tolerance test (ipGTT), 2 g/kg of glucose was administered intraperitoneally after the 2-week administration of the drug, and changes in blood glucose with the elapse of time (0, 15, 30, 60, 90, and 120 minutes) were measured.

Test [5] has the same test system. Put plainly: ipGTT in obesity model, Examples 2 and 6 (Experimental Example 6). The test is classed as in vivo. As to conditions: 2 g/kg glucose i.p. after 2 weeks of 20 nmol/kg s.c. once every other day; FIG. 6. The protocol: as §1

The text below walks through data of US12338270B2, “Pharmaceutical composition comprising polypeptide” (D&D Pharmatech Inc., priority 2018, dated 2025).

Positions of bridges follow the written chain, without caps; N, C: chain ends. Non-standard residues stand in square brackets, D forms with d. Residues, ends and D or L forms follow the SMILES beside them. No end group written: not given here. Aib = CC(C)(N)C(=O)O

human glucagon GLP-1 receptor, sequence (P43220 24-463): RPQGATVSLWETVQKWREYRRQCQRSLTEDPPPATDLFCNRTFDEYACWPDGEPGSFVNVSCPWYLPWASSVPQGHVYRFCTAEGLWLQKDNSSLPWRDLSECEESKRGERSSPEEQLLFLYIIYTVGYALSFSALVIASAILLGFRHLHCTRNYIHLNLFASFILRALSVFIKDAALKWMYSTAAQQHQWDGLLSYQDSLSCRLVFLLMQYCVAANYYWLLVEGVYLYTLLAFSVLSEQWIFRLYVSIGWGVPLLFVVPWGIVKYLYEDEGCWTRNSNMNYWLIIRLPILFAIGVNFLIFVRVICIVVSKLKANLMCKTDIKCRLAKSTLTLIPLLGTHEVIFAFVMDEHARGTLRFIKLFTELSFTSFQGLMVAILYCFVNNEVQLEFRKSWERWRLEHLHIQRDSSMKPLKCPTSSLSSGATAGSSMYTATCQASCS

One may read the EC50 as the concentration needed to bring the measured effect to its halfway point. Read a high EC50 as a less potent agent. For `CSCC[C@H](NC(=O)[C@H](CC(C)C)NC(=O)[C@H](Cc1c[nH]c2ccccc12)NC(=O)[C@H](CCC(N)=O)NC(=O)[C@@H](NC(=O)[C@H](Cc1ccccc1)NC(=O)[C@H](CCC(=O)O)NC(=O)[C@@H]1CCCCNC(=O)CC[C@H](NC(=O)[C@H](CC(=O)O)NC(=O)[C@H](CC(C)C)NC(=O)[C@H](Cc2ccc(O)cc2)NC(=O)[C@H](CCCCN)NC(=O)[C@H](CO)NC(=O)[C@H](Cc2ccc(O)cc2)NC(=O)[C@H](CC(=O)O)NC(=O)[C@H](CO)NC(=O)[C@@H](NC(=O)[C@H](Cc2ccccc2)NC(=O)[C@@H](NC(=O)CNC(=O)[C@H](CCC(N)=O)NC(=O)C(C)(C)NC(=O)[C@@H](N)Cc2c[nH]cn2)[C@@H](C)O)[C@@H](C)O)C(=O)N[C@@H](CCC(N)=O)C(=O)N[C@@H](C)C(=O)N[C@@H](C)C(=O)N1)C(C)C)C(=O)N[C@@H](CC(N)=O)C(=O)N[C@H](C(=O)N[C@@H](CS)C(=O)O)[C@@H](C)O` [Example 1] (H-H[Aib]QGTFTSDYSKYLDEQAAKEFVQWLMNTC-OH; lactam 16-20 (inferred); N-terminus and C-terminus assumed), the “anti-obesity effect” value in test [1] is on record as “had an anti-obesity effect”. The molecule further yielded an EC50 in test [2] of 0.13 nM. Regarding `CCCCCCCCCCC[C@@H](C[C@@H]1OC(=O)[C@H]1CCCCCC)OC(=O)[C@H](CC(C)C)NC=O` [tetrahydrolipstatin (orlistat), tetrahydrolipstatin], the “inhibition of absorption of ingested fats” value in test [3] is on record as “approximately 30%”. For the molecule “Example 6: Conjugate of polypeptide H(Aib)QGTFTSDYSKYLDEEAVKEFVQWLMNTC (SEQ ID NO. 4) and tri-branched mPEG-MAL (MW: 50 kDa) (H[Aib]QGTFTSDYSKYLDEEAVKEFVQWLMNTC; not fully specified (residue 30, bridges); printed as H(Aib)QGTFTSDYSKYLDEEAVKEFVQWLMNTC; also: conjugate with tri-branched mPEG-MAL 50 kDa)”, the “level of blood glucose vs control” value in test [4] is given as “a level of blood glucose was lowered”. In addition, the “increase in blood glucose in ipGTT vs control” value in test [5] is given as “an increase in blood glucose was significantly reduced”.
